Test: Sensory evaluation of 5 Brix and 10 Brix acidified water beverages by 15 panelists
Format: in vivo
Set-up: Astringency / Acidity / Sweet Aftertaste / Bitter Aftertaste / Overall Liking / Sweetness / Bitterness: scale not given here
Details: panel score
Protocol: 5 Brix and 10 Brix beverages were prepared by combining purified water containing 303 ppm citric acid and a sweetener. The 5 Brix beverages contained one of the following sweeteners: (i) 5% (wt/wt) sugar, (ii) 200 ppm A95 or (iii) 200 ppm of a 70 wt % Reb D/30 wt % Reb M blend. The 10 Brix beverages contained one of the following sweeteners: (i) 10% (wt/wt) sugar, (ii) 900 ppm A95 or (iii) 900 ppm of a 70 wt % Reb D/30wt % Reb M blend.
The beverages were served at room temperature in 2 oz clear plastic sample cups. 15 panelists evaluated the beverages for various tastes and flavors. Prior to sample evaluation, all panelists rinsed their palate with warm water. The assessors were instructed to take a sip of each beverage and rate the mouth feel and taste/flavor characteristics. 15 seconds after ingestion panelists were instructed to rate sweetness linger and aftertaste. Between samples evaluation a 1 minute rest period was allowed during which they rinsed their palate with warm water and 0.25% NaCl solution.
The various tastes and flavors measured in the evaluation are defined as follows: […]

[1] = 5 brix target, 5% sugar, 200 ppm A95 or 200 ppm blend
[2] = 10 brix target, 10% sugar, 900 ppm A95 or 900 ppm blend

OC[C@H]1O[C@@](CO)(O[C@H]2O[C@H](CO)[C@@H](O)[C@H](O)[C@H]2O)[C@@H](O)[C@@H]1O [Sugar]
Acidity [1]: 0.99
Astringency [1]: 0.84
Bitter Aftertaste [1]: 0.33
Bitterness [1]: 0.75
Off-Note (Metallic/Licorice) [1]: 0.52
Overall Liking [1]: 4.96
Sweet Aftertaste [1]: 0.56
Sweetness [1]: 4.91
Acidity [2]: 1.08
Astringency [2]: 0.92
Bitter Aftertaste [2]: 0.37
Bitterness [2]: 0.55
Off-Note (Metallic/Licorice) [2]: 0.51
Overall Liking [2]: 6.34
Sweet Aftertaste [2]: 1.08
Sweetness [2]: 8.45

— patent publication US20220232869A1, “Steviol Glycoside Sweeteners with Improved Flavor Profiles” (The Coca-Cola Company, priority 2015, published 2022)
